Structures are written as SMILES.

This assay deals with T1, human renin (Homo sapiens, UniProt P00797).
T1 sequence (P00797 67-406): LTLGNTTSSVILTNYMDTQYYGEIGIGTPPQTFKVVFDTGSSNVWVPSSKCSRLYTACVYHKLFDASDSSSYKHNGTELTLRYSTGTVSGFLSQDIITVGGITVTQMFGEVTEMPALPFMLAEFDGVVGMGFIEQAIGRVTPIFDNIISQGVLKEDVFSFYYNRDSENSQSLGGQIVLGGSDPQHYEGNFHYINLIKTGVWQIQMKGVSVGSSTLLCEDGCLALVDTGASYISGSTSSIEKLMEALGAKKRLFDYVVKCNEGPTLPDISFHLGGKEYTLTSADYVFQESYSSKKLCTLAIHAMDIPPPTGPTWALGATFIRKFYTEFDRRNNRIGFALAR
In words: Determination of renin IC50 by tGFP FRET assay. The conditions noted are these: Human recombinant renin, tandem GFP substrate 650 nM, 60 min incubation with compound, pH 7.4, 11-point curve. It counts as biochemical. The text has this: Determination of Renin IC50 by tGFP FRET Assay
The tGFP FRET (fluorescence resonance energy transfer) assay utilizes a tandem GFP substrate (60 kDa, Discovery Technologies) containing nine amino acid recognition sequences for human renin flanked by two GFP proteins. The assay is used to determine the ability of a compound to act as an inhibitor of renin enzymatic activity by determination of that concentration of test compound that inhibits by 50% (IC50) the ability of renin to cleave the tandem GFP substrate. The IC50 values are determined over an 11-point curve at concentrations of 100 μM to 1 pM. Each compound concentration used to construct the curve was dependent on renin inhibitor potency. For example, subnanomolar IC50 values were determined over an 11-point curve at concentrations of 10 μM to 1 pM. All other IC50 values were determined over an 11-point curve at concentrations of 100 μM to 0.0065 μM. The concentrations were achieved by diluting a 9.1 nM stock of Human recombinant renin in the appropriate amount of buffer containing 50 mM HEPES, 1 mM EDTA, 1% PEG (8000 MW), 1 mM DTT, 0.1% BSA, pH 7.4 to achieve the final concentration of 50.4 μIU. The tGFP substrate stock solution of 43 μM was diluted with the appropriate amount of the above buffer to obtain the final concentration of 650 nM. In addition, 1 μl of the compound is diluted in dimethylsulfoxide (DMSO) to represent an […] log scale (5% final). The SR renin and compound are added to a 384 capacity plate by an automated robot (BIOMEK). The plate is incubated for 60 minutes; upon completion the tGFP substrate is added.
The IC50 is determined by monitoring the increase in […] at 432/432 nm excitation, 530/475 nm emission with a cutoff at 515/455 nm, in a fluorometric plate reader.
For orientation: IC50 means the concentration needed to halve the response being measured. In the case of `COc1cccc(CCNC(=O)c2ccc(N3C(=O)CNC[C@@H]3COc3ccc4ccccc4c3)cc2)c1` [Example 50, N-[2-(3-methoxyphenyl)-ethyl]-4-[(2R)-2-(naphthalen-2-yloxymethyl)-6-oxopiperazin-1-yl]-benzamide], the IC50 is over 1000 nM. The result for `COc1ccc(COC[C@H]2CNCCN2c2ccc(OCCCOCc3ccc(Cl)c(Cl)c3)cc2)cc1` [Example 63, (2R)-1-{4-[3-(3,4-dichlorobenzyloxy)-propoxy]-phenyl}-2-(4-methoxybenzyloxymethyl)-piperazine] reads 11500 nM; that for `COc1ccccc1COCCCOc1ccc(N2C(=O)CNC[C@@H]2COc2ccc3c(c2)NCCC3)cc1` [Example 42, (6R)-1-{4-[3-(2-methoxybenzyloxy)-propoxy]-phenyl}-6-(1,2,3,4-tetrahydroquinolin-7-yloxymethyl)-piperazin-2-one], 124 nM; that for `COc1ccccc1OCCCCOc1ccc(N2C(=O)CNC[C@@H]2COCc2ccc(F)cc2)cc1` [Example 71, (6R)-6-(4-fluorobenzyloxymethyl)-1-{4-[4-(2-methoxyphenoxy)-butoxy]-phenyl}-piperazin-2-one], 3840 nM. For the molecule `COc1ccccc1COCCCOc1ccc(N2C(=O)CNC[C@@H]2COc2ccc3c(c2)N(CCNC(C)=O)CCC3)cc1` [Example 124, N-{2-[7-([2R]-1-{4-[3-(2-Methoxybenzyloxy)-propoxy]-phenyl}-6-oxopiperazin-2-ylmethoxy)-3,4-dihydro-2H-quinolin-1-yl]-ethyl}-acetamide], the half-inhibitory concentration (IC50) turned out to be 0.35 nM. For `COc1ccccc1OCCCOCc1ccc(N2C(=O)CNC[C@@H]2COCc2ccc(F)cc2)cc1` [Example 76, (6R)-6-(4-fluorobenzyloxymethyl)-1-{4-[3-(2-methoxyphenoxy)-propoxymethyl]-phenyl}-piperazin-2-one], the half-inhibitory concentration (IC50) is over 1000 nM. As to `COc1ccc(COC[C@H]2CNCCN2c2ccc(COCCOCc3ccccc3OC)cc2)cc1` [Example 72, (2R)-1-{4-[2-(2-methoxybenzyloxy)-ethoxymethyl]-phenyl}-2-(4-methoxybenzyloxymethyl)-piperazine], the IC50 was determined as 30500 nM.

`COc1ccc(COC[C@H]2CNCC(=O)N2c2ccc(OCCCOCc3ccccc3OC)cc2)cc1` [Example 12, (6R)-6-(4-methoxybenzyloxymethyl)-1-{4-[3-(2-methoxybenzyloxy)-propoxy]-phenyl}-piperazin-2-one]: the IC50 came to 3860 nM. For `COc1ccccc1COCCCOc1ccc(N2C(=O)CNC[C@@H]2CNC(=O)c2ccccc2OC)cc1` [Example 82, 2-methoxy-N-([2R]-1-{4-[3-(2-methoxybenzyloxy)-propoxy]-phenyl}-6-oxopiperazin-2-ylmethyl)-benzamide], the IC50 is over 1000 nM.

For the molecule `COCc1ccc(N2CCNC[C@@H]2COc2ccc3ccccc3c2)cc1` [Example 99, (2R)-1-(4-methoxymethylphenyl)-2-(naphthalene-2-yloxymethyl)-piperazine], the half-inhibitory concentration (IC50) was over 1000 nM. For the molecule `COc1ccccc1COCCCOc1ccc(N2C(=O)CNC[C@@H]2COc2ccccn2)cc1` [Example 80, (6R)-1-{4-[3-(2-methoxybenzyloxy)-propoxy]-phenyl}-6-(pyridin-2-yloxymethyl)-piperazin-2-one], the IC50 came out at 20900 nM. Consider `COc1ccccc1COCCCOc1ccc(N2C(=O)CNC[C@@H]2CNC(=O)c2ccc3ccccc3c2)cc1` [Example 85, naphthalene-2-carboxylic acid ([2R]-1-{4-[3-(2-methoxybenzyloxy)-propoxy]-phenyl}-6-oxopiperazin-2-ylmethyl)-amide], for which the IC50 is over 1000 nM. As to `COc1ccccc1COCCCOc1ccc(N2C(=O)CNC[C@@H]2COc2ccc(-c3ccccc3)cc2)cc1` [Example 92, (6R)-6-(biphenyl-4-yloxymethyl)-1-(4-[3-(2-methoxybenzyloxy)-propoxy]-phenyl)-piperazin-2-one], the IC50 is 2520 nM. The value for `COC(=O)CCN1CCc2ccc(OC[C@H]3CNCC(=O)N3c3ccc(OCCCOCc4ccccc4OC)cc3)cc21` [Example 133, 3-[6-([2R]-1-{4-[3-(2-Methoxybenzyloxy)-propoxy]-phenyl}-6-oxo-piperazin-2-ylmethoxy)-2,3-dihydro-indol-1-yl]-propionic acid methyl ester] was 9.59 nM; that for `COc1ccccc1COCCCOc1ccc(N2C(=O)CNC[C@@H]2COCc2ccccn2)cc1` [Example 29, (6R)-1-{4-[3-(2-methoxybenzyloxy)-propoxy]-phenyl}-6-(pyridin-2-ylmethoxymethyl)-piperazin-2-one] was over 1000 nM; that for `COc1ccccc1COCCCOc1ccc(N2C(=O)CNC[C@@H]2COc2ccc3c(c2)CCCN3C(C)=O)cc1` [Example 54, (6R)-6-(1-acetyl-1,2,3,4-tetrahydroquinolin-6-yloxymethyl)-1-{4-[3-(2-methoxybenzyloxy)-propoxy]-phenyl}-piperazin-2-one] was over 1000 nM. With `COc1ccccc1OCCCCOc1ccc(N2CCNC[C@@H]2COc2ccc3ccccc3c2)cc1` [Example 108, (2R)-1-{4-[4-(2-methoxyphenoxy)-butoxy]-phenyl}-2-(naphthalene-2-yloxymethyl)-piperazine], the IC50 amounted to 1360 nM. Turning to `COc1ccc2ccc(OC[C@H]3CNCC(=O)N3c3ccc(OCCCOCc4ccccc4OC)cc3)cc2c1` [Example 105, (6R)-1-{4-[3-(2-methoxybenzyloxy)-propoxy]-phenyl}-6-(7-methoxynaphthalen-2-yloxymethyl)-piperazin-2-one], the IC50 was found to be 225 nM.

For the molecule `COc1ccccc1COCCCOc1ccc(N2C(=O)CNC[C@@H]2COc2ccc3ccccc3c2)cc1OC` [Example 107, (6R)-1-(3-methoxy-4-[3-(2-methoxybenzyloxy)-propoxy]-phenyl)-6-(naphthalene-2-yloxymethyl)-piperazin-2-one], the IC50 was found to be 537 nM. Turning to `COc1ccc(COC[C@H]2CNCCN2c2ccc(COCCCOc3ccccc3OC)cc2)cc1` [Example 70, (2R)-2-(4-methoxybenzyloxymethyl)-1-{4-[3-(2-methoxyphenoxy)-propoxymethyl]-phenyl}-piperazine], the IC50 is over 1000 nM. The value for `COc1ccccc1COCCCOc1ccc(N2C(=O)CNC[C@@H]2COCc2cc(Cl)cc(Cl)c2)cc1` [Example 20, (6R)-6-(3,5-dichlorobenzyloxymethyl)-1-{4-[3-(2-methoxybenzyloxy)-propoxy]-phenyl}-piperazin-2-one] was over 1000 nM; that for `COc1ccccc1COCCCOc1ccc(N2C(=O)CNC[C@@H]2COC(=O)c2ccc(C)cc2)cc1` [Example 59, 4-methyl-benzoic acid (2R)-1-{4-[3-(2-methoxybenzyloxy)-propoxy]-phenyl}-6-oxopiperazin-2-yl methyl ester] was over 1000 nM; that for `COc1ccccc1COCCCOc1ccc(N2C(=O)CNC[C@@H]2COc2ccc3ccccc3c2)cc1C(=O)O` [Example 98, 2-[(5R)-3-(2-methoxybenzyloxy)-propoxy]-5-[2-(naphthalene-2-yloxymethyl)-6-oxopiperazin-1-yl]-benzoic acid] was over 1000 nM. The result for `COC(=O)c1cc(N2C(=O)CNC[C@@H]2COc2ccc3ccccc3c2)ccc1OCCCOCc1ccccc1OC` [Example 96, 2-[(5R)-3-(2-methoxybenzyloxy)-propoxy]-5-[2-(naphthalene-2-yloxymethyl)-6-oxopiperazin-1-yl]-benzoic acid methyl ester] reads over 1000 nM.

As to `COc1ccccc1COCCCOc1ccc(N2C(=O)CNC[C@@H]2COc2ccc3c(c2)N(CCCO)CCC3)cc1` [Example 44, (6R)-6-[1-(3-hydroxypropyl)-1,2,3,4-tetrahydroquinolin-7-yloxymethyl]-1-{4-[3-(2-methoxybenzyloxy)-propoxy]-phenyl}-piperazin-2-one], the IC50 came to 37 nM. `COc1ccccc1COCCCOc1ccc(N2C(=O)CNC[C@@H]2COc2ccc3ccncc3c2)cc1` [Example 51, (6R)-6-(isoquinolin-7-yloxymethyl)-1-{4-[3-(2-methoxybenzyloxy)-propoxy]-phenyl}-piperazin-2-one]: the IC50 stood at 528 nM.

On to `COc1ccccc1COCCCOc1ccc(N2CCNC[C@@H]2COCc2ccc3ccccc3c2)cc1` [Example 90, (2R)-1-{4-[3-(2-methoxybenzyloxy)-propoxy]-phenyl}-2-(naphthalen-2-ylmethoxymethyl)-piperazine], for which the IC50 is 1700 nM.

(Values after patent publication US20040214832A1, “Piperazine derivative renin inhibitors” (priority 2003, published 2004).)
